Like-named read-outs stand apart in the source and are kept apart here.

The target in one test is cdk4/D (Homo sapiens, UniProt P11802). As to the kind of experiment: Cyclin-Dependent Kinase 4 (cdk4) Assay. Type of test: biochemical. As for the experimental part: A typical assay, for instance, measures inhibitory activity against the cyclin D dependent kinase 4 enzyme (cdk4/D). […] The cdk4 assay was carried out as follows.
Cyclin-Dependent Kinase 4 (cdk4) Assay
All components except the ATP were added to the wells, and the plate was placed on a plate mixer for 2 minutes. The reaction was started by adding [^32P]ATP and the plate was incubated at 25° C. for 15 minutes. The reaction was terminated by addition of 0.1 mL of 20% trichloroacetic acid (TCA). The plate was kept at 4° C. for at least 1 hour to allow the substrate to precipitate. The wells were then washed five times with 0.2 mL of 10% TCA and ^32P incorporation was determined with a beta plate counter (Wallac Inc., Gaithersburg, Md.).

The next test addresses Cdk5/p25 (Homo sapiens, UniProt Q00535). Briefly: Cyclin-Dependent Kinase 5 High Throughput Screening (cdk5-HTS) Assay. Type of test: biochemical. The note with it: high throughput screen. As for the experimental part: Cyclin-Dependent Kinase 5 High Throughput Screening (cdk5-HTS) Assay
Enzyme assays for IC50 determinations were performed in 96-Pierce Reacti-Bind™ White Opaque Glutatione Coated Plates (Cat. No. 15240B).
The total volume was 0.100 mL containing a final concentration of 50 mM TRIS (tris[hydroxymethyl]aminomethane) at pH 7.4, 50 mM NaCl, 10 mM MgCl2, 5 mM dithiothreitol, 20 μM ATP containing 16 μCi/mL of Redivue[y33P]ATP (Amersham Pharmacia Biotech Cat. No. AH9968), 1.0 μg/mL Cdk5/p25, 20 μg/mL GST-RbCOOH, and appropriate dilutions of a compound of the present invention. The reaction was started by adding[^33P]ATP, and the plate was shaken for 30 seconds, then incubated at room temperature for 30 minutes. The reaction was terminated by addition of 0.05 mL of 120 mM EDTA. The plate was kept at room temperature for 45 minutes to allow substrate to bind to the walls of the plate. The wells were then washed three times with 0.2 mL of 1×PBS. Once thoroughly dry, 0.140 mL of MicroScint™2O (Packard Bioscience Cat. No. 87-9081) cocktail was added to all wells. The incorporation of ^33P was determined with a beta plate counter (Packard Topcount).

The next test deals with cdk2/cyclinE (Homo sapiens, UniProt P24941). Briefly: Cyclin-Dependent Kinase Assay cdk2/cyclinE. The note with it: cdk2/E IC50.
The next test addresses cdc2/cyclinB (Homo sapiens, UniProt P06493). As to the kind of experiment: Cyclin-Dependent Kinase Assay cdc2/cyclinB.
In a further test the target is cdk2/cyclinA (Homo sapiens, UniProt P24941). Briefly: Cyclin-Dependent Kinase Assay cdk2/cyclinA. The note with it: cdk2/A IC50.

cdc2/cyclinB, sequence (P06493 whole entry): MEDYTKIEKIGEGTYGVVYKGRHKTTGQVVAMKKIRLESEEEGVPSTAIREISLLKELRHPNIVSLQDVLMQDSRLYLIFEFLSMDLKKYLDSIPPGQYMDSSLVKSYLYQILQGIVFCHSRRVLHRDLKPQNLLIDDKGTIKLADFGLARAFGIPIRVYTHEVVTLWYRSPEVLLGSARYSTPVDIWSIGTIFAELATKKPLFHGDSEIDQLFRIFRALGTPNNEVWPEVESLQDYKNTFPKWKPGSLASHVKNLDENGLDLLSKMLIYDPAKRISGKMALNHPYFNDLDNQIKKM
cdc2/cyclinB, sequence (P14635 whole entry, further chain): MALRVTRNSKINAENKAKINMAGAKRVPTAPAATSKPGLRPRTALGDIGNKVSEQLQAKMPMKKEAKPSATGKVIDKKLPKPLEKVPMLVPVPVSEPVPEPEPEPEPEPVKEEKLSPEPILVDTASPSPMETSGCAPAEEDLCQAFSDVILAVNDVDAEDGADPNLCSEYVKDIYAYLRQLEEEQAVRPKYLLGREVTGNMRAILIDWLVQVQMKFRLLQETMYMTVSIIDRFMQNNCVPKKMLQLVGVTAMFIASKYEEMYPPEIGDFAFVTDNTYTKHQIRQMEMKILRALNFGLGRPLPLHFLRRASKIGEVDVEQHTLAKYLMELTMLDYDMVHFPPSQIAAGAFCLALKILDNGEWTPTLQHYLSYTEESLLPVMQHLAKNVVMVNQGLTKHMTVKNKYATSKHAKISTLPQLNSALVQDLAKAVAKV
cdk4/D, sequence (P11802 whole entry): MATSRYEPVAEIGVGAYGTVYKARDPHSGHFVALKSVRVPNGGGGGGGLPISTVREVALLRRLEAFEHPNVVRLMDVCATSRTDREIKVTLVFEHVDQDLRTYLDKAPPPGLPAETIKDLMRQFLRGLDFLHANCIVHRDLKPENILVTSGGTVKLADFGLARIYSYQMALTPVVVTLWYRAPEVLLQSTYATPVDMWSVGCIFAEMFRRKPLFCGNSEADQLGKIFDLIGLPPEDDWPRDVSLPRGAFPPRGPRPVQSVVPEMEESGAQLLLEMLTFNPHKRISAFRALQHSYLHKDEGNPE
cdk4/D, sequence (P24385 whole entry, further chain): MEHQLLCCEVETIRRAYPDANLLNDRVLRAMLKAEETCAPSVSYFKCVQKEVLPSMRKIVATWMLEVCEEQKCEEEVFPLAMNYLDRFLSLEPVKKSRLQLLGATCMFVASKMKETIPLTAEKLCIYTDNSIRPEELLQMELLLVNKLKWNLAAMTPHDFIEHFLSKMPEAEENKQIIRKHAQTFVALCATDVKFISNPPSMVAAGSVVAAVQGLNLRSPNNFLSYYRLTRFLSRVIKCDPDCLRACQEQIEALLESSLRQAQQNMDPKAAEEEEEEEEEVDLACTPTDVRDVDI

For “8-Butyl-2-(2-fluoro-4-nitro-phenylamino)-8H-pyrido[2,3-d]pyrimidin-7-one [Example 367]”, the IC50 on cdk4/D (read-out: cdk4/D IC50) came out at 2300 nM. As to `CCNc1nc(Nc2ccccc2)ncc1C=CC(=O)OCC` [Example 17, Ethyl 3-(4-Ethylamino-2-phenylamino-pyrimidin-5-yl)acrylate], the IC50 at cdk4/D (Table 2, Formula II compounds, read-out: cdk4 IC50) was found to be 2000 nM. With `CCn1c(=O)ccc2cnc(Nc3ccccc3OCc3ccccc3)nc21` [Example 56, 2-Benzyloxyphenylamino-8-ethyl-8H-pyrido[2,3-d]pyrimidin-7-one], on cdk4/D (Table 1, read-out: cdk4/D IC50), the IC50 was 25000 nM. As for `CCn1c(=O)ccc2cnc(Nc3cc(C(F)(F)F)ccc3F)nc21` [Example 302, 8-Ethyl-2-(2-fluoro-5-trifluoromethyl-phenylamino)-8H-pyrido[2,3-d]pyrimidin-7-one], the IC50 on Cdk5/p25 came out at 650 nM; on cdk2/cyclinE it was 2300 nM. In the case of `CCn1c(=O)ccc2cnc(Nc3ccc(OC(F)(F)F)c(Br)c3)nc21` [Example 306, 2-(3-Bromo-4-trifluoromethoxy-phenylamino)-8-ethyl-8H-pyrido[2,3-d]pyrimidin-7-one], the IC50 at cdk4/D (read-out: cdk4/D IC50) is 3600 nM. Take `CCn1c(=O)ccc2cnc(Nc3ccc(C)c(NS(C)(=O)=O)c3)nc21` [Example 307, N-[5-(8-Ethyl-7-oxo-7,8-dihydro-pyrido[2,3-d]pyrimidin-2-ylamino)-2-methyl-phenyl]-methanesulfonamide]: on cdk4/D (read-out: cdk4/D IC50), the IC50 came to 2800 nM. Still for that read-out and setting: for `CCn1c(=O)ccc2cnc(Nc3ccc(NC(C)=O)c(C#N)c3)nc21` [Example 308, N-[2-Cyano-4-(8-ethyl-7-oxo-7,8-dihydro-pyrido[2,3-d]pyrimidin-2-ylamino)-phenyl]-acetamide] the value was 3200 nM. On to `CCCn1c(=O)ccc2cnc(Nc3ccc(C#N)c(C#N)c3)nc21` [Example 339, 4-(7-Oxo-8-propyl-7,8-dihydro-pyrido[2,3-d]pyrimidin-2-ylamino)-phthalonitrile], for which the results for the IC50 against Cdk5/p25 and on cdk2/cyclinE were 830 nM and 1800 nM, respectively. On Cdk5/p25, `CCCn1c(=O)ccc2cnc(Nc3ccc4c(c3)NCC4)nc21` [Example 352, 2-(2,3-Dihydro-1H-indol-6-ylamino)-8-propyl-8H-pyrido[2,3-d]pyrimidin-7-one] came in with an IC50 of 2900 nM. On to `CCCn1c(=O)ccc2cnc(Nc3ccc(OC(F)(F)F)c(Br)c3)nc21` [Example 363, 2-(3-Bromo-4-trifluoromethoi-phenylamino)-8-propyl-8H-pyrido[2,3-d]pyrimidin-7-one], for which the IC50 on cdk4/D (read-out: cdk4/D IC50) is 1900 nM. The same measure, in the same setting: for `CCCCn1c(=O)ccc2cnc(Nc3ccc(C)c(NS(C)(=O)=O)c3)nc21` [Example 405, N-[5-(8-Butyl-7-oxo-7,8-dihydro-pyrido[2,3-d]pyrimidin-2-ylamino)-2-methyl-phenyl]-methanesulfonamide] the value was 3100 nM. Regarding `Cc1cc(Nc2ncc3ccc(=O)n(C(C)C)c3n2)ccc1O` [Example 435, 2-(4-Hydroxy-3-methyl-phenylamino)-8-isopropyl-8H-pyrido[2,3-d]pyrimidin-7-one], the IC50 was determined as 2600 nM at cdk4/D (read-out: cdk4/D IC50) and 1300 nM at Cdk5/p25.

Take `CC(C)n1c(=O)ccc2cnc(Nc3ccc4c(c3)CCN4)nc21` [Example 437, 2-(2,3-Dihydro-1H-indol-5-ylamino)-8-isopropyl-8H-pyrido[2,3-d]pyrimidin-7-one]: the IC50 on cdk4/D (read-out: cdk4/D IC50) was 3200 nM. Same read-out and setting: for `CC(=O)Nc1ccc(Nc2ncc3ccc(=O)n(C(C)C)c3n2)cc1C#N` [Example 445, N-[2-Cyano-4-(8-isopropyl-7-oxo-7,8-dihydro-pyrido[2,3-d]pyrimidin-2-ylamino)-phenyl]-acetamide] the value was 2700 nM; for `CCC(C)n1c(=O)ccc2cnc(Nc3ccc(C)c(Br)c3)nc21` (stereo not drawn) [Example 478, 2-(3-Bromo-4-methyl-phenylamino)-8-sec-butyl-8H-pyrido[2,3-d]pyrimidin-7-one], 1300 nM; for `CCC(C)n1c(=O)ccc2cnc(Nc3ccc(Br)c(C)c3)nc21` (stereo not drawn) [Example 479, 2-(4-Bromo-3-methyl-phenylamino)-8-sec-butyl-8H-pyrido[2,3-d]pyrimidin-7-one], 1700 nM.

As for `CCC(C)n1c(=O)ccc2cnc(Nc3ccc(C)c(NS(C)(=O)=O)c3)nc21` (stereo not drawn) [Example 480, N-[5-(8-sec-Butyl-7-oxo-7,8-dihydro-pyrido[2,3-d]pyrimidin-2-ylamino)-2-methyl-phenyl]-methanesulfonamide], the IC50 on cdk4/D (read-out: cdk4/D IC50) was found to be 2900 nM. `CCC(CC)n1c(=O)ccc2cnc(Nc3ccc(C(F)(F)F)c([N+](=O)[O-])c3)nc21` [Example 489, 8-(1-Ethyl-propyl)-2-(3-nitro-4-trifluoromethyl-phenylamino)-8H-pyrido[2,3-d]pyrimidin-7-one] yielded an IC50 at Cdk5/p25 of 3500 nM. For `O=c1ccc2cnc(Nc3ccc4c(c3)CCN4)nc2n1C1CCCC1` [Example 553, 8-Cyclopentyl-2-(2,3-dihydro-1H-indol-5-ylamino)-8H-pyrido[2,3-d]pyrimidin-7-one], the IC50 at cdk4/D (read-out: cdk4/D IC50) amounted to 99 nM; against cdc2/cyclinB, 2500 nM. Consider `CC(=O)Nc1c(F)cc(Nc2ncc3ccc(=O)n(CC4CC4)c3n2)cc1Cl` [Example 579, N-[2-Chloro4-(8-cyclopropylmethyl-7-oxo-7,8-dihydro-pyrido[2,3-d]pyrimidin-2-ylamino)-6-fluoro-phenyl]-acetamide], for which the IC50 on cdk4/D (read-out: cdk4/D IC50) was determined as 2800 nM; against cdk2/cyclinE, 2900 nM; at cdk2/cyclinA it was 3900 nM. Regarding `O=c1ccc2cnc(Nc3ccc4c(c3)CCN4)nc2n1CC1CC1` [Example 581, 8-Cyclopropylmethyl-2-(2,3-dihydro-1H-indol-5-ylamino)-8H-pyrido[2,3-d]pyrimidin-7-one], the IC50 at cdk4/D (read-out: cdk4/D IC50) is 420 nM; against cdc2/cyclinB it was 1600 nM. As for `COc1ccc(Nc2ncc3ccc(=O)n(CC(F)(F)F)c3n2)cc1F` [Example 602, 2-(3-Fluoro-4-methoxy-phenylamino)-8-(2,2,2-trifluoro-ethyl)-8H-pyrido[2,3-d]pyrimidin-7-one], the results for the IC50 on cdk4/D (read-out: cdk4/D IC50), against Cdk5/p25 and at cdc2/cyclinB were 1300 nM, 180 nM and 1800 nM, respectively. On to `N#Cc1ccc(Nc2ncc3ccc(=O)n(CC(F)(F)F)c3n2)cc1C#N` [Example 603, 4-[7-Oxo-8-(2,2,2-trifluoro-ethyl)-7,8-dihydro-pyrido[2,3-d]pyrimidin-2-ylamino]-phthalonitrile], for which, at Cdk5/p25, the IC50 is 1200 nM. For `CC(=O)Nc1cc(Nc2ncc3ccc(=O)n(CC(F)(F)F)c3n2)ccc1C#N` [Example 604, N-{2-Cyano-5-[7-oxo-8-(2,2,2-trifluoro-ethyl)-7,8-dihydro-pyrido[2,3-d]pyrimidin-2-ylamino]-phenyl}-acetamide], the values for the IC50 at cdk4/D (read-out: cdk4/D IC50) and on Cdk5/p25 were 3200 nM and 2000 nM, respectively.

With `O=c1ccc2cnc(Nc3ccc(F)c(F)c3)nc2n1CC(F)(F)F` [Example 607, 2-(3,4-Difluoro-phenylamino)-8-(2,2,2-trifluoro-ethyl)-8H-pyrido[2,3-d]pyrimidin-7-one], the figures for the IC50 on cdk4/D (read-out: cdk4/D IC50) and on Cdk5/p25 were 1400 nM and 610 nM, respectively.

`O=c1ccc2cnc(Nc3cc(F)cc(F)c3)nc2n1CC(F)(F)F` [Example 609, 2-(3,5-Difluoro-phenylamino)-8-(2,2,2-trifluoro-ethyl)-8H-pyrido[2,3-d]pyrimidin-7-one] gave an IC50 on Cdk5/p25 of 3200 nM. Same read-out and setting: for `O=c1ccc2cnc(Nc3cccc(C(F)(F)F)c3)nc2n1CC(F)(F)F` [Example 611, 8-(2,2,2-Trifluoro-ethyl)-2-(3-trifluoromethyl-phenylamino)-8H-pyrido[2,3-d]pyrimidin-7-one] the value was 3300 nM. Regarding `Cn1c(=O)ccc2cnc(Nc3ccc(O)c(Cl)c3)nc21` [Example 616, 2-(3-Chloro-4-hydroxy-phenylamino)-8-methyl-8H-pyrido[2,3-d]pyrimidin-7-one], the IC50 at Cdk5/p25 came out at 2200 nM; on cdk2/cyclinE, 3800 nM. Take `COc1cc(Nc2ncc3ccc(=O)n(C)c3n2)cc(OC)c1OC` [Example 619, 8-Methyl-2-(3,4,5-trimethoxy-phenylamino)-8H-pyrido[2,3-d]pyrimidin-7-one]: at Cdk5/p25, the IC50 came to 1700 nM. Same read-out and setting: for `Cn1c(=O)ccc2cnc(Nc3ccc(C#N)c(C(F)(F)F)c3)nc21` [Example 620, 4-(8-Methyl-7-oxo-7,8-dihydro-pyrido[2,3-d]pyrimidin-2-ylamino)-2-trifluoromethyl-benzonitrile] the value was 420 nM.

The record behind these values is US20040224958A1, “Pyridopyrimidinone derivatives for treatment of neurodegenerative disease” (priority 2000, published 2004).
